The source of these data is patent EP3025717A1, “SYNERGISTIC PHARMACEUTICAL COMPOSITION OF TWO ANALGESICS HAVING A DISTINCT PHARMACOKINETIC PROFILE” (FARMACÉUTICOS RAYERE, S.A., priority 2013, dated 2014).

Data set [1] deals with acute inflammatory pain. Description: Formalin model of acute inflammatory pain in mice, isobolographic analysis. It counts as in vivo, ICR male mice. Conditions: Mus musculus, ip; individual drug, intraperitoneal, 20 minutes before formalin, phase 2 (15 to 45 minutes); read-out: DE30 (dose causing 30% anti-nociceptive effect).
Method: The duration of the experiment was always as short as possible, considering that the number of animals used was the minimum necessary. […] Transparent cylinders of 20 cm diameter X 40 cm high were used, with mirrors. At the start of the experiment, the mice were placed in cylinders for a period of 60 minutes to settle. After this time, the mice were removed for the administration of 20 μL formalin (3% formaldehyde solution). Immediately after formalin administration, the mouse was returned to the cylinder for observing the characteristic behaviour, which consists in counting the number of licks of the injected paw during 5-minute periods to a total time of 45 minutes. […] Groups of animals were used with an average n ≥ 6. Physiological saline solution (0.9) was administered intraperitoneally as a control of each experimental set. […] The percentage of anti-nociception was plotted according to the dose of both analgesics individually or in combination. The data of the dose-response curve were analysed by a variance analysis (ANOVA), followed by a Tukey test. […] The doses used for this assay correspond to those reported as effective in humans, considering that an average human weighs 60 kg.
For data set [2] the following is noted: cited from earlier work.
Data set [3] has as its system COX-1 and COX-2. Conditions: in vitro; cited from earlier work.

Regarding `Cc1cnc(NC(=O)C2=C(O)c3ccccc3S(=O)(=O)N2C)s1` [MXC, 4-hydroxy-2-methyl-N-(5-methyl-2-thiazolyl)-2H-1,2-benzothiazine-3-carboxamide-1,1-dioxide], the ED30 in data set [1] was 0.12 ± 0.004 mg/kg. The “percentage of native drug in the faeces” value in data set [2] (faeces) is 1.6%. The “administered dose excreted in the urine” value in data set [2] (mostly as metabolites) is recorded as 43%. Also, in data set [2] (oral administration), the absolute bio-availability is recorded as 90%. The Tmax (commonly the time from dosing to the highest level) in data set [2] (plasma) was 5 to 6 h. The “increase of the maximum plasma concentrations by food” value in data set [2] (presence of food) was 22%. The “plasma concentrations observed in synovial fluid” value in data set [2] (synovial fluid) is 40-50%. Besides, in data set [2] (urine), the “percentage of native drug in the urine” value is reported as 0.2%.

With `CC(=O)Oc1ccccc1C(=O)O` [aspirin, acetylsalicylic acid], the “ratio Cl50COX-2/Cl50COX-1 (inhibits more the constitutive COX-1 than the COX-2)” value in data set [3] was 166 times.
